Data on 7 compounds can be found in patent US7645864B2, “Erythromycin derivative having novel crystal structures and processes for their production” (Chugai Seiyaku Kabushiki Kaisha, priority 2001, dated 2010).

The nature of series [1]: Average particle size by particle size distribution analyzer. The class given is physicochemical. The conditions noted are these: D-form crystal. The text has this: The content of residual solvent may be determined in a known manner, for example, by gas chromatography. The details on gas chromatography can be found in the Japanese Pharmacopoeia, 13th Edition, published by Hirokawa Publishing Co. (1996) pp. B83-B94, the Japanese Pharmacopoeia, 14th Edition, published by Hirokawa Publishing Co. (2001) pp. B98-B114 and elsewhere. In general, gas chromatography will cause a measurement error falling within around ±1%. The compound of the present invention can also be determined for its average particle size in a known manner or using various devices that are commercially available, such as a dry particle size distribution analyzer. In general, such a particle size distribution analyzer will cause a measurement error falling within around ±5%.
In these examples and comparison examples, X-ray diffractometry was performed using a powder X-ray diffractometer RINT-1100 (Rigaku), the content of residual solvent was determined using a gas chromatograph GC-17A (Shimadzu Corp.), and the average particle size was determined using a particle size distribution analyzer RPS-95 (Seishin Enterprise Co., Ltd.).

The conditions of series [2]: reported in JP 9-100291 A; cited from earlier work.

With `CC[C@H]1OC(=O)[C@H](C)[C@@H](O[C@H]2C[C@@](C)(OC)[C@@H](O)[C@H](C)O2)[C@H](C)[C@@H](O[C@@H]2O[C@H](C)C[C@H](N(C)C(C)C)[C@H]2O)[C@]2(C)CC(C)=C(O2)[C@H](C)C(=O)[C@]1(C)OC` [Comparison Example 1, reference compound], the “Particle size (average particle size)” value in series [1] worked out at 82 μm.

As for `CC[C@H]1OC(=O)[C@H](C)[C@@H](O[C@H]2C[C@@](C)(OC)[C@@H](O)[C@H](C)O2)[C@H](C)[C@@H](O[C@@H]2O[C@H](C)C[C@H](N(C)C(C)C)[C@H]2O)[C@]2(C)CC(C)=C(O2)[C@H](C)C(=O)[C@]1(C)OC` [Comparison Example 2, reference compound], in series [1], the “Particle size (average particle size)” value amounted to 61 μm. As to `CC[C@H]1OC(=O)[C@H](C)[C@@H](O[C@H]2C[C@@](C)(OC)[C@@H](O)[C@H](C)O2)[C@H](C)[C@@H](O[C@@H]2O[C@H](C)C[C@H](N(C)C(C)C)[C@H]2O)[C@]2(C)CC(C)=C(O2)[C@H](C)C(=O)[C@]1(C)OC` [D-type crystal], in series [2], the “Stability compared with the A-type and C-type crystals” value is listed as “superior in stability”. Turning to `CC[C@H]1OC(=O)[C@H](C)[C@@H](O[C@H]2C[C@@](C)(OC)[C@@H](O)[C@H](C)O2)[C@H](C)[C@@H](O[C@@H]2O[C@H](C)C[C@H](N(C)C(C)C)[C@H]2O)[C@]2(C)CC(C)=C(O2)[C@H](C)C(=O)[C@]1(C)OC` [Example 2], in series [1], the “Particle size (average particle size)” value is recorded as 302 μm. The same measure, in the same setting: for `CC[C@H]1OC(=O)[C@H](C)[C@@H](O[C@H]2C[C@@](C)(OC)[C@@H](O)[C@H](C)O2)[C@H](C)[C@@H](O[C@@H]2O[C@H](C)C[C@H](N(C)C(C)C)[C@H]2O)[C@]2(C)CC(C)=C(O2)[C@H](C)C(=O)[C@]1(C)OC` [Example 3] the value was 197 μm; for `CC[C@H]1OC(=O)[C@H](C)[C@@H](O[C@H]2C[C@@](C)(OC)[C@@H](O)[C@H](C)O2)[C@H](C)[C@@H](O[C@@H]2O[C@H](C)C[C@H](N(C)C(C)C)[C@H]2O)[C@]2(C)CC(C)=C(O2)[C@H](C)C(=O)[C@]1(C)OC` [Example 7], 163 μm; for `CC[C@H]1OC(=O)[C@H](C)[C@@H](O[C@H]2C[C@@](C)(OC)[C@@H](O)[C@H](C)O2)[C@H](C)[C@@H](O[C@@H]2O[C@H](C)C[C@H](N(C)C(C)C)[C@H]2O)[C@]2(C)CC(C)=C(O2)[C@H](C)C(=O)[C@]1(C)OC` [Example 8], 185 μm.
